Measurements as given in US20060127505A1, “Anti-inflammatory formulations” (priority 2002, published 2006).
“Also recorded” adds a separate entry of the source.

What was measured:
PAF = PAF (Homo sapiens, UniProt P25105); conditions: cited from earlier work
cAMP-phosphodiesterase = conditions: cited from earlier work
eosinophils = conditions: oral treatment; histamine-induced guinea pig eye model; cited from earlier work
TNF-α = TNF-α expression by PHA-stimulated human PBMC, ELISA of supernatant; type: cell-based; conditions: PHA 50 μg/ml, 24 hours; 10^−4 M
Method: PBMC (2×10^6/ml) from 2 donors were stimulated with 50 μg/ml, PHA; or with astaxanthin (10^−6 M); or with the ginkgolide BN52021 (GB) (10^−4 M); or with a combination of astaxanthin (10^−6 M) plus GB (10^−4 M); or with media. Cells were cultured 24 hours at 37° C., 5% CO2 and analyzed by ELISA for supernatant concentration of TNF-α. Each data point is the mean of triplicate samples.

[1] = system: ovalbumin(OA)-induced asthma in guinea pigs; test: Ovalbumin-induced asthma in guinea pigs: inflammatory cells in BAL fluid; type: in vivo, guinea pig; conditions: components used separately: 10 mg/kg AX, 200 mg/kg vit C, 10 mg/kg GB
Method: The effect combinations of vitamin C, astaxanthin, and ginkolide on asthma-associated disease parameters ovalbumin(OA)-induced asthma in guinea pigs was evaluated. Twenty-four hours following OA challenge, animals are sacrificed and numbers of inflammatory cells (eosinophils, neutrophils, macrophages) are measured in bronchoalveolar lavage (BAL) fluid; and cAMP and cGMP concentrations in the lung tissue. The experiments were carried out as follows. Male Hartley guinea pigs (250-350 g) were sensitized by intramuscular injections of 0.35 ml of a 5% (W/V) ovalbumin (OA)/saline solution into each thigh on days 1 and 4. Guinea pigs were ready for asthmatic challenge after 25 days of ovalbumin injection. Asthmatic challenge was carried out with ovalbumin aerosol, and bronchoalveolar lavage (BAL) was done 24 hours later. The numbers of eosinophils, neutrophils, and macrophages in the BAL fluid were counted. Twenty-four hours after the aerosol OA challenge, guinea pigs were killed by cervical dislocation and exsanguinated by severing the axillary arteries. Lungs were lavaged with 50 ml of DulBecco's phosphate-buffered saline (aliquots of 10 ml), which were aspirated after gentle chest massage. BAL fluid was centrifuged at 2200 rpm (1100×g) for 10 min, supernatant was aspirated, and pellets were resuspended in 5 ml 0.25% NaCl to lyse residual erythrocytes. This dispersion was centrifuged at 2200 rpm (1100×g) for 10 min, supernatant was aspirated, and pellets were resuspended 5 ml 0.9% NaCl. Total cell counts were done by hemocytometry using trypan blue stain. Slides were prepared on a Shandon Cytospin 2 (Pittsburgh, Pa.) at 300 rpm for 5 min, fixed and stained. Differential cell counts were done using standard morphologic criteria to classify cells as eosinophils, neutrophils, or macrophages, and the results were expressed in cell numbers. The dose-responsive effect of AX, EGb761, and vitamin C administered independently for suppression of asthma-associated parameters in allergen-induced, asthmatic guinea pigs was determined. Ibuprophen (IB) was used as the positive control. Concentration of inflammatory cells in bronchoalveolar lavage (BAL) fluid and levels of cAMP and cGMP in lung tissue were measured in guinea pigs 24 hours following challenge with OV. Data is reported as mean±SD of measurements taken in 6 animals per dosage cohort. *p<0.05 compared to corresponding values of OV antigen-challenged, drug-free control group. The dose-responsive effect of AX, EGb761, and vitamin C administered in combination for suppression of asthma-associated parameters in allergen-induced, asthmatic guinea pigs was determined. The combination of these three components was given each day for each guinea pig as a “cocktail”. Concentration of inflammatory cells in bronchoalveolar lavage (BAL) fluid and levels of cAMP and cGMP in lung tissue were measured in guinea pigs 24 hours following challenge with OV. Data is reported as mean±SD of measurements taken in 6 animals per dosage cohort. *p<0.05 compared to corresponding values of OV antigen-challenged, drug-free control group.

[2] = system: CD3+HLA-DR+ lymphocytes in human PBMC; test: PHA-mediated induction of CD3+HLA-DR+ lymphocytes in human PBMC (Example 8); type: cell-based; conditions: PHA 50 μg/ml, 24 hours
Method: (§1) Cells from 3-12 asthma patients were cultured 24 hours with 50 μg/ml PHA. PBMC evaluated by 2-color flow cytometry were gated for CD3+ and analyzed for CD3+CD25+ or CD3+HLA-DR+ as a percentage of the CD3+ population. Results are reported as stimulation indices (SI) calculated as the ratio of % CD3+CD25+ cells or % CD3+HLA-DR+ cells in fully-stimulated cultures to % CD3+CD25+ or % CD3+HLA-DR+ respectively in cells treated with PHA plus ASX, GB, or combinations thereof.

[3] = system: CD3+HLA-DR+ T lymphocytes in human PBMC; test: PHA induction of HLA-DR+ on CD3+ T cells, PBMC from asthma patients (Example 5); type: cell-based; conditions: for SI HLA-DR: PHA 50 μg/ml, 24 hours
Method: (§2) Experiments were carried out to determine whether the immunoregulatory capacity of two commonly-used H1-inhibitory antihistamines: cetirizine dihydrochloride (CTZ/Zyrtec) and azelastine ([…]) is potentiated by the platelet activating factor receptor (PAFR) antagonist and free radical scavenger Ginkgolide B (GB). […] Each drug was first evaluated independently over a 3-log dose range from 10^-8-10^-6 M.

[4] = system: CD3+CD25+ cells in human PBMC; test: T lymphocyte activation (CD3+CD25+) in PHA-stimulated PBMC of asthma patients (Example 6); type: cell-based; conditions: PHA 50 μg/ml, 24 hours
Method: Experiments were carried out to determine whether formulations based on the platelet activating factor receptor (PAFR) antagonist and free radical scavenger Ginkgolide B (GB) in combination with the antioxidant carotenoid astaxanthin (ASX) suppress T cell activation in the same dose range as two commonly-used antihistamines: cetirizine dihydrochloride (CTZ/Zyrtec) and azelastine ([…]). […] Results are reported as stimulation indices (SI) of % CD3+CD25+ cells in cultures treated with PHA alone to % CD3+CD25+ cells in each drug-supplemented culture. […] Subjects for this study included 12 patients diagnosed with atopic asthma, 7 male and 5 female, ranging in age from 21 to 40 years (mean 28±1.8 years). Disease duration ranged from 2 to 12 years. Atopy was defined on the basis of one or more positive skin prick tests to a range of 20 allergens. None of the patients had received systemic therapy for at least 6 weeks prior to blood collection. The mean serum IgE was 335 (170-480) IU/ml. Venous blood for each subject was collected in polyethylene tubes containing EDTA during a one hour morning time interval. PBMC were separated by Ficoll-paque (Pharmacia, Uppsala, Sweden) density gradient centrifugation. Cells were washed and suspended in RPMI 1640 medium (Gibco BRL, Gaithersburg, Md.) at density of 1×10^6 cells/ml. PBMC were stimulated with 50 μg/ml Phytohemaglutinin (PHA) (Sigma Immunopharmaceuticals, St. Lous Mo.), or PHA plus 10^-8-10^-5 M astaxanthin (Natural Alternatives International (NAI) Inc., San Marcos Calif.); or ginkgolide B 10^-8-10^-6 M (NAI San Marcos Calif.); or selected combinations of ASX plus GB. Comparison of ASX and GB effects on T cell activation were made with two other pharmacological agents with anti-asthmatic properties by treating cells with 10^-7-10^-4 M cetirizine dihydrochloride (Pfizer Pharmaceuticals, Norwich Conn.); or 10^-7-10^-4 M azalestine hydrochloride (Wallace Pharmaceuticals, Somerset N.J.), followed by evaluation of cultures for the same biological endpoints as ASX/GB-treated cells. Each reagent was added at the outset of a 24 hours culture period, followed by harvest of cellular fraction for immunophenotyping studies. […] Two-color Flow cytometry was conducted using a Coulter Epics XL automated flow cytometer (Coulter Scientific, Hialeah, Fla., USA). Isotypic controls for the monoclonal antibodies (mAb) used to detect antigens of interest were established for each cell preparation. Positive analysis regions for cells expressing specific surface markers were set against controls and specific binding of fluorophore-conjugated mAb was analyzed by cytofluorography according to standard methods recommended by the manufacturer. Lymphocyte subpopulations were identified by position on forward and side scatter plots and live-gated. Expression of each antigen was reported as percentage cells positive for a particular T cell subpopulation defined by expression of CD3 (T lymphocyte marker) plus CD25, plus or minus standard error. Statistical analysis was performed using an independent t-test. All statistical analyses were performed using the SPSS for Windows statistical package (Norusis/SPSS, Inc.). […] The capacity of formulations evaluated in this study to suppress immune activation was measured as a stimulation index (SI), defined as the ratio of […].

[5] = system: CD3+CD25+ T lymphocytes in human PBMC; test: PHA induction of CD25+ on CD3+ T cells, PBMC from asthma patients (Example 5); type: cell-based; conditions: PHA 50 μg/ml, 24 hours
Method: as §2

[6] = system: CD3+CD25+ lymphocytes in human PBMC; test: PHA-mediated induction of CD3+CD25+ lymphocytes in human PBMC (Example 8); type: cell-based; conditions: PHA 50 μg/ml, 24 hours
Method: as §1

PAF, sequence (P25105 whole entry): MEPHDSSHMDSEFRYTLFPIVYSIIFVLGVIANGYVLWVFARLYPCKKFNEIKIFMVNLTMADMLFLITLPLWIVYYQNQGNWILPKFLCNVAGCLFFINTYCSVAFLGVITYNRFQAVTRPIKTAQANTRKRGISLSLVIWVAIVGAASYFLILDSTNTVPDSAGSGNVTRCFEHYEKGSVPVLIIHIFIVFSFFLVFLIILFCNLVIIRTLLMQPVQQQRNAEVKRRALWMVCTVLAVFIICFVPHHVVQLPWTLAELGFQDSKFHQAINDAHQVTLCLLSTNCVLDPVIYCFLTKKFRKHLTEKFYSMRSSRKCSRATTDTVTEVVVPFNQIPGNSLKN

**Q.** Which “PAF antagonistic activity in vitro compared with BN52021” value (PAF) does the source give for `COc1ccc(NC(=S)N2CCc3c(sc4c3C(c3ccccc3Cl)=NCc3nnc(C)n3-4)C2)cc1` [BN 50730] here?
**A.** The value was “several ten-folds more potent”.

**Q.** With `COc1ccc(-c2cc(=O)c3c(O)cc(O)c(-c4cc(-c5cc(=O)c6c(O)cc(OC)cc6o5)ccc4OC)c3o2)cc1` [sciadopitysin] as the molecule, how does the “degree of enzyme inhibition (cAMP-phosphodiesterase), order” value (cAMP-phosphodiesterase) read?
**A.** The value was “almost no capacity for inhibition”.

**Q.** With `COc1ccc(C2CNC(=O)C2)cc1OC1CCCC1` (centres unmarked) [rolipram] as the molecule, how does the infiltrate of eosinophils (eosinophils) read?
**A.** The infiltrate of eosinophils was “significantly suppressed infiltrate”.

**Q.** For `CC1C(=O)OC2C(O)C34C5CC(C(C)(C)C)C36C(OC(=O)C6O)OC4(C(=O)O5)C12O` (centres unmarked) [GB, Ginkgolide B], which TNF-alpha (TNF-α) is on record?
**A.** The TNF-alpha was 1689.21 pg/mL.

**Q.** And the “protection against OV-induced asthma” value [1]?
**A.** The value was “failed to protect; also recorded: failed to reduce the severity of asthma”.

**Q.** And the “CD3+HLA-DR+ Stimulation Index” value ([2]; 10^−6 M)?
**A.** The value was 0.66 ± 0.06.

**Q.** What about the “CD3+HLA-DR+ Stimulation Index” value ([2]; 10^−7 M) of the same molecule?
**A.** Its value is 0.78 ± 0.20.

**Q.** What about the “CD3+HLA-DR+ Stimulation Index” value ([2]; 10^−8 M) of the same molecule?
**A.** The value was 0.73 ± 0.12.

**Q.** And the “decrease in SI for HLA-DR” value ([3]; 10^−8 M)?
**A.** Its value is 39%.

**Q.** What about the “SI HLA-DR” value ([3]; 10^−6 M) of the same molecule?
**A.** The value was 0.72 ± 0.18.

**Q.** What about the “SI HLA-DR” value ([3]; 10^−7 M) of the same molecule?
**A.** The value was 0.62 ± 0.18.

**Q.** And the “SI HLA-DR” value ([3]; 10^−8 M)?
**A.** The value was 0.61 ± 0.10.

**Q.** And the “SI (CD3+CD25+)” value ([4]; 10^−6 M)?
**A.** Its value is 0.77±0.12.

**Q.** What about the “SI (CD3+CD25+)” value ([4]; 10^−8 M) of the same molecule?
**A.** The value was 0.86±0.07.

**Q.** What about the “SI CD25” value ([5]; 10^−6 M) of the same molecule?
**A.** The value was 0.94 ± 0.12.

**Q.** What about the “SI CD25” value ([5]; 10^−7 M) of the same molecule?
**A.** The value was 1.18 ± 0.21.

**Q.** And the “SI CD25” value ([5]; 10^−8 M)?
**A.** The value was 0.81 ± 0.14.

**Q.** And the “CD3+CD25+ Stimulation Index” value ([6]; 10^−6 M)?
**A.** The value was 0.83 ± 1.0.

**Q.** What about the “CD3+CD25+ Stimulation Index” value ([6]; 10^−7 M) of the same molecule?
**A.** Its value is 0.92 ± 0.08.

**Q.** And the “CD3+CD25+ Stimulation Index” value ([6]; 10^−8 M)?
**A.** The value was 0.90 ± 0.07.
